One series concerns P. falciparum. Also noted: method as in Shahinas et al. [2013]. The note with it: in vitro against P. falciparum; ref Shahinas et al. [2013]; cited from earlier work.
A short description of series [1]: In vivo toxicity in Galleria mellonella larvae. The note with it: Galleria mellonella, in vivo, other: injection; larvae, injection, survival monitored 5 days; read-out: G. mellonella LD50. Also noted: G. mellonella Toxicity class: scale not given here. On the procedure: (§1) In vivo toxicity was performed using the invertebrate Galleria mellonella model. Healthy, beige larvae weighing 200–250 mg were obtained from the Entomology laboratory at the University and selected for toxicity assays. Groups of ten six-instar larvae were inoculated with 10 μL or 20 μL of each compound at concentrations equivalent to 3000 mg/kg and incubated at 37 °C in darkness. […] The larvae were initially injected with 1000 mg/kg, and if most larvae (> 60%) survived after 5 days, the assay was performed using higher doses up to 3000 mg/kg (Piatek et al. [2021]).

Another series has as its system Galleria mellonella. In words: In vivo toxicity in Galleria mellonella larvae. The arrangement: G. mellonella Toxicity class: scale not given here. The note with it: class from LD50 in larvae. As for the experimental part: as §1
The next series relates to P. falciparum 3D7. In words: Growth inhibition of P. falciparum 3D7 cultures, SYBR Green assay. It is filed as cell-based, Plasmodium falciparum. To be noted: P. falciparum 3D7, 72 h, triplicate. As for the experimental part: Antimalarial activity of the selected compounds was assessed by growth inhibition assays. P. falciparum 3D7 parasites (a chloroquine-sensitive strain) kindly supplied by the Biodefense and Emerging Infections Research Resources Repository (BEI resources, NIAID, NIH, USA) were cultured by the Trager-Jensen method (Trager and Jensen [1976]; Moll et al. [2013]) with modifications. Briefly, parasite-infected red blood cells (RBCs) were kept in continuous culture in complete culture medium (CCM) containing RPMI 1640 (GIBCO), 25 mM hydroxypipazine-N’-2-ethane sulfonic acid (HEPES, Sigma), and 25 μg/mL gentamicin. […] [2013]). Parasite growth was monitored by preparing Giemsa-stained smears. The parasitemia was determined by examination of at least 10 high power magnification fields (hpf) (Moll et al. [2013]), and levels of parasitemia were kept between 5 and 10%. Artemisinin (Sigma) and chloroquine diphosphate salt (Sigma) were used as control drugs. […] Susceptibility assays were performed by the SYBR Green method with modifications (Kato et al. [2018]). Briefly, P. falciparum-infected RBCs cultured under standard conditions were plated at about 2% parasitemia (2% hematocrit), in 96-well microplates, and 10 μM of each compound was added; the final DMSO concentration was less than 0.1%. Parasites were initially incubated for 72 h before addition of lysis buffer (20mM Tris-HCl, 5mM EDTA, 0.008% saponin, 0.08% Triton X-100) supplemented with 0.04% SYBR™ Green I Nucleic Acid (10,000 × in DMSO, Invitrogen), then the microplates were returned to culture for 4 h at room temperature and read in a microplate fluorimeter (Cytation 3 M, Biotek) at excitation 485 nm–emission 530 nm. A control drug for total growth inhibition, a non-drug well and uninfected RBCs were included as positive and negative controls, respectively. The percentage (%) of inhibition was calculated as follows: 1-(fluorescence of treated/nontreated cultures) × 100. […] To do this, parasite cultures were exposed to serial two-fold dilutions of the test compounds ranging from 10 to 0.078 μM. Controls of uninfected RBCs and CQ-treated infected RBCs were included, and the assays were performed in triplicate.

The subject of the next series is human RBCs. In words: Hemolytic activity test. It is filed as cell-based. To be noted: human RBCs 2% hematocrit, 72 h, 37 °C, tested at 200, 100, 50, 25 μM. On the procedure:
The ability to induce membrane damage was assessed by testing the hemolytic activity of those compounds showing inhibition of parasite growth. The assay was adapted from Sousa et al. ([2021]) with modifications. Briefly, 180 μL of human RBCs adjusted to 2% hematocrit in phosphate buffered saline (PBS) were placed into a 96-well microplate and subsequently exposed to 200 μM of each selected compound. As a positive control, 20 μL of 1% sodium dodecyl sulfate (SDS) was added, and a non-drug well was included as a negative control. Free hemoglobin was measured after 72 h of incubation at 37 °C by spectrophotometry at 540 nm (Cytation 3 M, Biotek). Nonspecific absorbance was corrected by subtracting the blank (PBS). Determinations were done by triplicate in at least two independent experiments. Compounds with hemolytic activity at 200 μM were further tested at 100 μM, 50 μM, and 25 μM dilutions.

[2] abbreviates: Plasmodium falciparum, 3D7, 72 h.

Broadly, the IC50 is the concentration needed to halve the response being measured. Consider `CC(C)NCCCn1c(Sc2cc3c(cc2I)OCO3)nc2c(N)ncnc21` [PU-H71], for which, in the series on P. falciparum, the IC50 is 110 nM.

One may read the LD50 as the dose at which mortality reaches 50%. As to `O=C(/C=C/c1cccc(Nc2ccnc3cc(Cl)ccc23)c1)c1ccc2c(c1)OCO2` [UV7, Quinolinyl-amino chalcone], the LD50 at 5 days in series [1] was 2000 mg/kg. In the series on Galleria mellonella, the “G. mellonella Toxicity class” value was 5. The values for the IC50 with P. falciparum 3D7, in the series with P. falciparum 3D7 (listed as 7) and in the series on P. falciparum 3D7 (setting [2]) were roughly 1000 nM, 1070 ± 200 nM and greater than 1000 nM, respectively. In the series with human RBCs, this compound came in with a Hemolytic activity greater than 200 µM.

On to `CC(=O)N1N=C(c2cccc(Nc3ccncc3)c2)CC1c1ccc(Cl)cc1` (stereo not drawn) [UV285], for which the IC50 in the series with P. falciparum 3D7 (setting [2]) was 1580 to 2750 nM.

On to `CC(=O)N1N=C(c2cccc(Nc3ccncc3)c2)CC1c1ccc(Br)cc1` (stereo not drawn) [UV286], for which the LD50 at 5 days in series [1] is 1500 mg/kg. Also, in the series with Galleria mellonella, the “G. mellonella Toxicity class” value worked out at 4. Further, the IC50 in the series on P. falciparum 3D7 was less than 1000 nM; in the series on P. falciparum 3D7 (listed as 286), 444 ± 100 nM. Besides, the Hemolytic activity in the series on human RBCs is greater than 200 µM.

For the compound `COc1ccc(C2CC(c3cccc(Nc4ccncc4)c3)=NN2C(C)=O)cc1` (stereo not drawn) [UV287], in the series with P. falciparum 3D7 (setting [2]), the IC50 is 1580 to 2750 nM.

As for `CC(=O)N1N=C(c2cccc(Nc3ccncc3)c2)CC1c1ccc(F)cc1` (stereo not drawn) [UV288], the concentration for half-maximal inhibition (IC50) with P. falciparum 3D7 (setting [2]) was in the range of 1580 to 2750 nM.

In the series with P. falciparum 3D7 (setting [2]), `CC(=O)N1N=C(c2cccc(Nc3ccncc3)c2)CC1c1ccc2c(c1)OCO2` (stereo not drawn) [UV290] came in with a concentration for half-maximal inhibition (IC50) of 1580 to 2750 nM.

On to `CC(=O)N1N=C(c2cccc(Nc3ccncc3)c2)CC1c1ccc(C)cc1` (stereo not drawn) [UV291], for which, in the series on P. falciparum 3D7 (setting [2]), the IC50 was 1580 to 2750 nM.

For the compound `CC(=O)N1N=C(c2cccc(Nc3ccncc3)c2)CC1c1ccccc1` (stereo not drawn) [UV292], in series [1], the LD50 at 5 days was 3000 mg/kg. For the same compound, in the series with Galleria mellonella, the “G. mellonella Toxicity class” value came out at 5. Besides, the figures for the IC50 in the series on P. falciparum 3D7 and with P. falciparum 3D7 (setting [2]) were 660 ± 200 nM and less than 1000 nM, respectively. In the series with human RBCs, this compound had a Hemolytic activity greater than 100 µM.

Turning to `COc1ccc(C2CC(c3cccc(Nc4ccncc4)c3)=NN2c2ccccc2)cc1` (stereo not drawn) [UV296], the LD50 at 5 days in series [1] came out at 2000 mg/kg. In addition, in the series on Galleria mellonella, the “G. mellonella Toxicity class” value was determined as 5. Moreover, the IC50 with P. falciparum 3D7 is 629 ± 100 nM; in the series with P. falciparum 3D7 (setting [2]), less than 1000 nM. Besides, the values for the Hemolytic activity entry in the series with human RBCs and with human RBCs (listed as 296) were “induced RBC hemolysis at lower concentrations” and greater than 25 µM, respectively.

Consider `COc1cc(C2CC(c3cccc(Nc4ccncc4)c3)=NN2c2ccccc2)cc(OC)c1OC` (stereo not drawn) [UV297], for which the LD50 at 5 days in series [1] was determined as 2000 mg/kg. For the same compound, the “G. mellonella Toxicity class” value with Galleria mellonella came out at 5. Besides, the values for the IC50 in the series on P. falciparum 3D7 and with P. falciparum 3D7 (setting [2]) were 991 ± 280 nM and less than 1000 nM, respectively. The compound further showed a Hemolytic activity with human RBCs greater than 200 µM.

Take `Clc1ccc(N2N=C(c3cccc(Nc4ccncc4)c3)CC2c2ccc3c(c2)OCO3)cc1` (stereo not drawn) [UV306, 4-(pyridyl-aminophenyl)-methyledioxyphenyl-N-(4-chlorophenyl)pyrazoline]: the LD50 at 5 days in series [1] was 2000 mg/kg. Moreover, in the series on Galleria mellonella, the “G. mellonella Toxicity class” value worked out at 5. Further, the IC50 in the series on P. falciparum 3D7 is 710 ± 100 nM; with P. falciparum 3D7 (setting [2]), less than 1000 nM. Besides, the Hemolytic activity with human RBCs worked out at 25 µM.

On to `Nc1ncnc2c1N=C(c1cccc(Nc3ccncc3)c1)CC(c1ccccc1)N2` (stereo not drawn) [UV712, Pyridyl-amino-pyrimido-diazepine], for which, in series [1], the 50% lethal dose (LD50) at 5 days turned out to be 1000 mg/kg. Moreover, the “G. mellonella Toxicity class” value in the series with Galleria mellonella is given as 4. Further, the values for the IC50 in the series on P. falciparum 3D7, in the series with P. falciparum 3D7 (listed as 712) and with P. falciparum 3D7 (setting [2]) were roughly 1000 nM, 1080 ± 200 nM and greater than 1000 nM, respectively. In the series with human RBCs, this compound came in with a Hemolytic activity greater than 200 µM.

With `Nc1nc(N)c2c(n1)NC(c1ccc(Cl)cc1)CC(c1cccc(Nc3ccncc3)c1)=N2` (stereo not drawn) [UV797, Pyridyl-amino-pyrimido-diazepine], the LD50 at 5 days in series [1] worked out at 2000 mg/kg. Further, in the series on Galleria mellonella, the “G. mellonella Toxicity class” value worked out at 5. For the same compound, in the series on P. falciparum 3D7, the half-inhibitory concentration (IC50) amounted to 353 ± 19 nM. This compound returned a Hemolytic activity in the series on human RBCs greater than 200 µM.

Regarding `Cc1ccc(C2CC(c3cccc(Nc4ccncc4)c3)=Nc3c(N)nc(N)nc3N2)cc1` (stereo not drawn) [UV801, Pyridyl-amino- pyrimido- diazepine], the LD50 at 5 days in series [1] came out at 2000 mg/kg. Besides, the “G. mellonella Toxicity class” value in the series on Galleria mellonella amounted to 5. For the same compound, the IC50 with P. falciparum 3D7 was 537 ± 30 nM; in the series with P. falciparum 3D7 (setting [2]), less than 1000 nM. Besides, the Hemolytic activity in the series with human RBCs was greater than 200 µM.

Regarding `Nc1nc(N)c2c(n1)NC(c1ccccc1)CC(c1cccc(Nc3ccncc3)c1)=N2` (stereo not drawn) [UV802, Pyridyl-amino-pyrimido-diazepina], the LD50 at 5 days in series [1] stood at 2000 mg/kg. Also, in the series with Galleria mellonella, the “G. mellonella Toxicity class” value was 5. Also, in the series with P. falciparum 3D7, the IC50 was 178 ± 40 nM. In the series on human RBCs, this compound came in with a Hemolytic activity greater than 200 µM.
